# Test results from US9221802B2, “Arylethynyl derivatives” (Hoffmann-La Roche Inc., priority 2012, dated 2015).
# Read-outs that look alike come from different tables or passages of the source.
# Experiments:
# [1] = target: human mGlu5a receptor (Homo sapiens (Human), UniProt P41594); assay: Intracellular Ca2+ mobilization assay; assay type: cell-based; details: for EC50: HEK-293 cells expressing human mGlu5a; for Emax: maximal response in % of maximal stimulatory effect of saturating L-glutamate, read-out: Efficacy [%]
# Method: A monoclonal HEK-293 cell line stably transfected with a cDNA encoding for the human mGlu5a receptor was generated; for the work with mGlu5 Positive Allosteric Modulators (PAMs), a cell line with low receptor expression levels and low constitutive receptor activity was selected to allow the differentiation of agonistic versus PAM activity. Cells were cultured according to standard protocols (Freshney, 2000) in Dulbecco's Modified Eagle Medium with high glucose supplemented with 1 mM glutamine, 10% (vol/vol) heat-inactivated bovine calf serum, Penicillin/Streptomycin, 50 μg/ml hygromycin and 15 μg/ml blasticidin (all cell culture reagents and antibiotics from Invitrogen, Basel, Switzerland).
# About 24 hrs before an experiment, 5×10^4 cells/well were seeded in poly-D-lysine coated, black/clear-bottomed 96-well plates. The cells were loaded with 2.5 μM Fluo-4AM in loading buffer (1×HBSS, 20 mM HEPES) for 1 hr at 37° C. and washed five times with loading buffer. The cells were transferred into a Functional Drug Screening System 7000 (Hamamatsu, Paris, France), and 11 half logarithmic serial dilutions of test compound at 37° C. were added and the cells were incubated for 10-30 min. with on-line recording of fluorescence. Following this pre-incubation step, the agonist L-glutamate was added to the cells at a concentration corresponding to EC20 (typically around 80 μM) with on-line recording of fluorescence; in order to account for day-to-day variations in the responsiveness of cells, the EC20 of glutamate was determined immediately ahead of each experiment by recording of a full dose-response curve of glutamate. Responses were measured as peak increase in fluorescence minus basal (i.e. fluorescence without addition of L-glutamate), normalized to the maximal stimulatory effect obtained with saturating concentrations of L-glutamate. Graphs were plotted with the % maximal stimulatory using XLfit, a curve fitting program that iteratively plots the data using Levenburg Marquardt algorithm. The single site competition analysis equation used was y=A+((B−A)/(1+((x/C)D))), where y is the % maximal stimulatory effect, A is the minimum y, B is the maximum y, C is the EC50, x is the log 10 of the concentration of the competing compound and D is the slope of the curve (the Hill Coefficient). From these curves the EC50 (concentration at which half maximal stimulation was achieved), the Hill coefficient as well as the maximal response (=Efficacy) in % of the maximal stimulatory effect obtained with saturating concentrations of L-glutamate were calculated.
# A depression of the signal observed after addition of the EC20 concentration of L-glutamate was indicative of an inhibitory activity of the test compound.
# The Intracellular Ca^2+ mobilization assay as described before was used for determination of EC50 values.
# [2] = Glutathione (GSH) addition assay after metabolic activation; assay type: in vitro ADME, human; set-up: key: Samples for which the mass of a covalent adduct to a reactive metabolite was clearly detected are indicated as FLAG (positive); Compounds for which no adduct was detected are designated NO FLAG (negative); details: glutathione adduct detection after metabolic activation
# Method: The assay conditions for the detection of glutathione conjugates follow the procedure described by C. M. Dieckhaus et al. in Chem. Res. Toxicol., 18, 630-638 (2005). Samples for which the mass of a covalent adduct to a reactive metabolite was clearly detected are indicated as FLAG (positive). Compounds for which no adduct was detected are designated NO FLAG (negative).
# The “gold standard” CVB (covalent binding) assay, which detects the formation of covalent adducts by incubation of test compounds with human liver microsomes (HLM) needs to be conducted with 14C-labelled material. This is not appropriate for routine screening purposes. The glutathione assay after metabolic activation (see assay description) is appropriate for routine screening, and compounds that show significant activity in this assay are very likely to show activity in the CVB assay. […] Generally speaking, compounds of the present invention therefore have a clear advantage with respect to drug safety due to their much less pronounced tendency to form reactive metabolites compared to structurally similar compounds of prior art.
# [3] = PAM activity in presence of EC20 L-glutamate, read-out: Ec50
# [4] = PAM activity, read-out: EC50 (nM) mGlu5 PAM
# Sequence of human mGlu5a receptor (P41594 other isoform, or with tags, fused parts or gaps): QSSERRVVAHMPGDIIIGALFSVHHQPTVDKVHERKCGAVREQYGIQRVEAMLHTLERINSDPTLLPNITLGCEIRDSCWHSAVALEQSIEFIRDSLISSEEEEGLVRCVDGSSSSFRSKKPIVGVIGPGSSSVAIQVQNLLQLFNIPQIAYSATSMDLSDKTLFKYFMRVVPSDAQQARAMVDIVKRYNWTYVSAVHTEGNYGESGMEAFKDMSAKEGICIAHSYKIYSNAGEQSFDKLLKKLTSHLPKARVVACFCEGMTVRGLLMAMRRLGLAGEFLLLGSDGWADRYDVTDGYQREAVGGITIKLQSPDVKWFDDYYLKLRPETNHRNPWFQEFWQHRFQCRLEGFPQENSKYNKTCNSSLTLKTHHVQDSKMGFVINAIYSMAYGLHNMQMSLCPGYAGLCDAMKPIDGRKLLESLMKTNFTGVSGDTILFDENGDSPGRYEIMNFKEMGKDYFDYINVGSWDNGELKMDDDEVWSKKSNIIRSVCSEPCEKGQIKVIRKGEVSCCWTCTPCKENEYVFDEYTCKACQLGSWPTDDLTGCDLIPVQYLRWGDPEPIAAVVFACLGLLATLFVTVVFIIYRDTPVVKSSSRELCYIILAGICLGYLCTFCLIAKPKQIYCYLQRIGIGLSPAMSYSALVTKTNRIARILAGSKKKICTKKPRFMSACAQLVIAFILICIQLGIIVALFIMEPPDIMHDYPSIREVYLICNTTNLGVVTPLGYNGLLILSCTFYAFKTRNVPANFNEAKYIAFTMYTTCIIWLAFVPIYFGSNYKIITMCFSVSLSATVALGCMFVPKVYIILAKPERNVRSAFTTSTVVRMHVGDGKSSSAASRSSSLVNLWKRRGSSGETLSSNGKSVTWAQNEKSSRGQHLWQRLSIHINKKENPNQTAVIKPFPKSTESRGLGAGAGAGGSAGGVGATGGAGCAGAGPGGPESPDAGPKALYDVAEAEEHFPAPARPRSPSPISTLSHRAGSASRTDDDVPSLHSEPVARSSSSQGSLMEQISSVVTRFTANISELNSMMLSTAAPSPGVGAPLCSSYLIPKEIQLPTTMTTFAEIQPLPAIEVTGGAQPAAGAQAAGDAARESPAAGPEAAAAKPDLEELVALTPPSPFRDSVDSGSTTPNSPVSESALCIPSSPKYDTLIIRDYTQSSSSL
"EC50 [1, 4] [nM]",Compound,"EC50 [1, 3] [nM]",Emax [1] [%],GSH [HLM] [2]
10,"O=C1OC[C@H]2CCC[C@H]2N1c1ccc(C#Cc2ccc(F)cc2)cn1 [Ex. 3, (4aS,7aR)-1-[5-(4-Fluorophenylethynyl)-pyridin-2-yl]-hexahydro-cyclopenta[d][1,3]oxazin-2-one]",10,40,NO FLAG
–,CC1(C)CCN(c2ccc(C#Cc3ccc(F)cc3)cn2)C(=O)O1 [Ref. Ex. 79],22,85,FLAG
22,"O=C1OC[C@H]2CCC[C@H]2N1c1ccc(C#Cc2ccccc2)cn1 [Ex. 1, (4aS,7aR)-1-(5-Phenylethynyl-pyridin-2-yl)-hexahydro-cyclopenta[d][1,3]oxazin-2-one]",22,38,NO FLAG
–,CC1(C)CCN(c2ccc(C#Cc3cc(F)ccc3F)cn2)C(=O)O1 [Ref. Ex. 81],12,95,FLAG
15,"O=C1OC[C@H]2CCC[C@H]2N1c1ccc(C#Cc2cc(F)ccc2F)cn1 [Ex. 4, (4aS,7aR)-1-[5-(2,5-Difluorophenylethynyl)-pyridin-2-yl]-hexahydro-cyclopenta[d]-[1,3]oxazin-2-one]",15,35,NO FLAG
–,O=C1O[C@H]2CCC[C@H]2CN1c1ccc(C#Cc2ccccc2)cn1 [Ref. Ex. 103],27,123,FLAG
10,"O=C1OC[C@H]2CCC[C@H]2N1c1ccc(C#Cc2cccc(F)c2)cn1 [Ex. 2, (4aS,7aR)-1-[5-(3-Fluorophenylethynyl)-pyridin-2-yl]-hexahydro-cyclopenta[d][1,3]oxazin-2-one]",10,43,NO FLAG
–,CC1(C)COC(=O)N(c2ccc(C#Cc3ccccc3)cn2)C1 [Ref. Ex. 20],27,135,–
–,CC1(C)CCN(c2ccc(C#Cc3ccccc3)cn2)C(=O)O1 [Ref. Ex. 72],10,86,FLAG
–,CC1(C)CCN(c2ccc(C#Cc3cccc(F)c3)cn2)C(=O)O1 [Ref. Ex. 76],13,124,FLAG
